Measurements published in patent US9686985B2, “Fungicide N-cycloalkyl-N-bicyclicmethylene-carboxamide derivatives” (BAYER INTELLECTUAL PROPERTY GMBH, priority 2012, dated 2017).

Experiments:
[1] = log P by HPLC on reversed-phase column (EEC Directive 79/831 Annex V.A8); assay type: physicochemical; settings: Table 1; HPLC C18, 40° C., 0.1% aqueous formic acid and acetonitrile gradient
Procedure, shortened: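 Calibration relied on straight-chain alkan-2-ones with 3 to 16 carbon atoms and known log P, with sample values read by linear interpolation of retention time between two adjacent standards. Separation at 40° C used 0.1% aqueous formic acid with acetonitrile rising linearly from 10% to 90%. UV spectra from 200 nm to 400 nm at chromatographic peak maxima gave lambda-max.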

[2] = test system: Sphaerotheca fuliginea; experiment: Example A: in vivo preventive test on Sphaerotheca fuliginea (cucumber)
Method: Example A: In Vivo Preventive Test on Sphaerotheca fuliginea (Cucumber) [table] To produce a suitable preparation of active compound, 1 part by weight of active compound is mixed with the stated amounts of solvent and emulsifier, and the concentrate is diluted with water to the desired concentration. To test for preventive activity, young plants are sprayed with the preparation of active compound at the stated rate of application. One day after this treatment, the plants are inoculated with an aqueous spore suspension of Sphaerotheca fuliginea. Then the plants are placed in a greenhouse at approximately 23° C. and a relative atmospheric humidity of approximately 70%.

[3] = test system: Sphaerotheca fuliginea; experiment: Example B: in vivo preventive test on Sphaerotheca fuliginea (powdery mildew on cucurbits); settings: table B; 500 ppm; gherkin plants; grading 12 days after contamination
Method: Example B: In Vivo Preventive Test on Sphaerotheca fuliginea (Powdery Mildew on Cucurbits) […] Gherkin plants (“Vert petit de Paris” variety), sown in starter cups on a 50/50 peat soil-pozzolana substrate and grown at 24° C., are treated at the Z11 cotyledon stage by spraying with the active ingredient prepared as described above. Plants, used as controls, are treated with the mixture of acetone/tween/DMSO/water not containing the active material. After 24 hours, the plants are contaminated by spraying the cotyledons with an aqueous suspension of Sphaerotheca fuliginea spores (100 000 spores per mL). The spores are collected from infected plants. The contaminated gherkin plants are incubated at about 20° C. and at 70-80% relative humidity. Grading (% of efficacy) is carried out 12 days after the contamination, in comparison with the control plants.

[4] = test system: Uromyces appendiculatus; experiment: Example F: in vivo preventive test on Uromyces appendiculatus (beans); settings: table F, 100 ppm, evaluated 10 days after inoculation
Method: Example F: In Vivo Preventive Test on Uromyces appendiculatus (Beans) [table] To produce a suitable preparation of active compound, 1 part by weight of active compound is mixed with the stated amounts of solvent and emulsifier, and the concentrate is diluted with water to the desired concentration. To test for preventive activity, young plants are sprayed with the preparation of active compound at the stated rate of application. After the spray coating has dried on, the plants are inoculated with an aqueous spore suspension of the causal agent of bean rust (Uromyces appendiculatus) and then remain for 1 day in an incubation cabinet at approximately 20° C. and a relative atmospheric humidity of 100%. The plants are then placed in a greenhouse at approximately 21° C. and a relative atmospheric humidity of approximately 90%.

[5] = test system: Uromyces appendiculatus; experiment: Example G: in vivo preventive test on Uromyces appendiculatus (bean rust); settings: table G1; 500 ppm; bean plants; grading 11 days after contamination
Procedure, shortened: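 Bean plants ("Saxa") at the 2-leaf stage, grown at 24° C., sprayed preventively with active ingredient, then inoculated 24 h later with U. appendiculatus spores (150 000 spores per mL). Incubated 24 h at 20° C./100% RH, then 10 days at 20° C./70-80% RH; % efficacy graded 11 days after contamination versus solvent-treated controls.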

[6] = test system: Leptosphaeria nodorum; experiment: Example J: in vivo preventive test on Leptosphaeria nodorum (wheat); settings: table J, 500 ppm, evaluated 8 days after inoculation
Method: (§1) Example J: In Vivo Preventive Test on Leptosphaeria nodorum Test (Wheat) [table] To produce a suitable preparation of active compound, 1 part by weight of active compound or active compound combination is mixed with the stated amounts of solvent and emulsifier, and the concentrate is diluted with water to the desired concentration. To test for preventive activity, young plants are sprayed with the preparation of active compound or active compound combination at the stated rate of application. After the spray coating has been dried, the plants are sprayed with a spore suspension of Leptosphaeria nodorum. The plants remain for 48 hours in an incubation cabinet at approximately 20° C. and a relative atmospheric humidity of approximately 100%. The plants are placed in the greenhouse at a temperature of approximately 22° C. and a relative atmospheric humidity of approximately 80%.

[7] = test system: Puccinia triticina; experiment: Example O: in vivo preventive test on Puccinia triticina (wheat); settings: table O, 500 ppm, evaluated 8 days after inoculation
Method: as §1, with “O:” for “J:”, “Puccinia triticina” for “Leptosphaeria nodorum Test”, “Puccinia triticina.” for “Leptosphaeria nodorum.”, “20°” for “22°”

[8] = test system: Puccinia recondita; experiment: Example R: in vivo preventive test on Puccinia recondita (brown rust on wheat); settings: table R; 500 ppm; wheat plants; grading 12 days after contamination
Method: Example R: In Vivo Preventive Test on Puccinia recondita (Brown Rust on Wheat) […] Wheat plants (“Scipion” variety), sown in starter cups on a 50/50 peat soil pozzolana substrate and grown at 22° C., are treated at the 1 leaf stage (10 cm height) by spraying with the active ingredient prepared as described above. Plants, used as controls, are treated with the mixture of acetone/tween/DMSO/water not containing the active material. After 24 hours, the plants are contaminated by spraying the leaves with an aqueous suspension of Puccinia recondita spores (100 000 spores per mL). The spores are collected from an infected plant and are suspended in water containing 2.5 mL/L of Tween 80 at 10%. The contaminated wheat plants are incubated for 24 hours at 20° C. and at 100% relative humidity, and then for 10 days at 20° C. and at 70-80% relative humidity. Grading (% of efficacy) is carried out 12 days after the contamination, in comparison with the control plants.

[9] = table A1, 100 ppm of active ingredient, evaluated 7 days after inoculation
[10] = table A2, dose 100 ppm, comparison with WO-2010/086311 compounds

SMILES	logP [1]	Efficacy [2, 9] [%]	Efficacy [2, 10] [%]	Efficacy [3] [%]	Efficacy [4] [%]	Efficacy [5] [%]	Efficacy [6] [%]	Efficacy [7] [%]	Efficacy [8] [%]
CC(C1CCCc2ccccc21)N(C(=O)c1c(C(F)F)nn(C)c1F)C1CC1 (stereo not drawn) [I.23]	4.08	94	94	100	96	100	100	75	97
Cn1nc(C(F)F)c(C(=O)N(CC2CC(C)(C)Oc3ccccc32)C2CC2)c1F (stereo not drawn) [I.33]	3.53	94	94	100	100	100	100	100	97
